According to patent EP0308065A2, “Therapeutic nucleosides” (priority 1987, dated 1989):
pIC50: −log10 of the molar value. Counter-ions that a name gives are not always drawn.

What was measured:
[1] = test system: Herpes Simplex Virus (HSV 1); test: plaque reduction assay of HSV 1 in monolayers of Vero cells; type: cell-based; details: HSV 1, Vero cells, read-out: IC₅₀
Description: Herpes Simplex Virus (HSV 1) was assayed in monolayers of Vero cells in multiwell trays. Activity of compounds was determined in the plaque reduction assay, in which a cell monolayer was infected with a suspension of HSV 1, and then overlaid with nutrient agarose in the form of a gel to ensure that there was no spread of virus throughout the culture. A range of concentrations of compound of known molarity was incorporated in the nutrient agarose overlay. Plaque numbers at each concentration were expressed as percentages of the control and a dose-response curve was drawn. From this curve the 50% inhibitory concentration (IC₅₀) was estimated.

[2] = humans, after oral administration (background statement); cited from earlier work
[3] = growth inhibition of uninfected mammalian cells (D98); type: cell-based; details: three days exposure, D-98 cells (human), read-out: Cell Toxicity (% of control at 100µm) D-98 Cells
Description: (§1) The capability of candidate compounds to inhibit the growth of D98 cells (human) and L cells (murine) was measured by determination of cell number following three days exposure of a standard number of cells to various dilutions of compound (Rideout, J. L., Krenitsky, T.A., Koszalka, G.W., Cohn, N.K., Chao, E.Y. Elion, G.B., Latter, V.S., and Williams, R.B. (1982) J. Med Chem. 25: 1040-1044). The cell number was then compared to the number obtained in the absence of compound. Cell enumeration was performed by either direct particle counts following trypsinization of the monolayer, or by spectrophotometric determination of the amount of vital stain taken up by the cells.
(§2) The concentration of compound resulting in 50% of control values (IC50) was calculated either by direct interpolation from graphs of the log of the compound concentration versus the percent of control value, or from a computer program which analyses the data according to the same algorithm. Data in the range of 20% to 80% of control were used in these calculations.

[4] = growth inhibition of uninfected mammalian cells (L cells); type: cell-based; details: mouse, three days exposure, L cells (murine), read-out: Cell Toxicity (% of control at 100µm) L-Cells
Description: as §1, §2

[5] = oral bioavailability: urinary recovery as acyclovir after gavage; details: Long Evans rats, dose equivalent to 25 mg/kg acyclovir, urine collected 24 and 48 hours post-dose
Description: Long Evans Rats were adminstered the compound to be tested by gavage at a dose equivalent to 25 mg/kg acyclovir. The urine was collected for 24 and 48 hours post-dose, ultrafiltered, and analysed by reverse-phase high-pressure liquid chromatography. The oral bioavailability of the compound was expressed as the percent of the dose excreted in the urine as acyclovir.

| SMILES | pIC50 [1] | recovery in the urine [2] [%] | activity at 72 h, 100 µM [3] [%] | activity at 72 h, 100 µM [4] [%] | Urinary Recovery (% of dose) as acyclovir [5] |
| --- | --- | --- | --- | --- | --- |
| Nc1nc2c(ncn2COCCO)c(=O)[nH]1 [Acyclovir, 9-(2-Hydroxyethoxymethyl)guanine] | 7.00 to 7.10 | 20 | 99 | 72 |  |
| CC(C)[C@H](N)C(=O)OCCOCn1cnc2c(=O)[nH]c(N)nc21 [Example 1B, 2-(2-Amino-1,6-dihydro-6-oxo-9H(purin-9-yl)methoxy) ethyl L-valinate hydrochloride monohydrate] |  |  | 91 | 85 |  |
| CC[C@H](C)[C@H](N)C(=O)OCCOCn1cnc2c(=O)[nH]c(N)nc21 [Example 2, 2-(2-amino-1,6-dihydro-6-oxo-9H(purin-9-yl)methoxy)ethyl L-isoleucinate hydrochloride] | 5.42 |  | 80 | 83 | 50 % of dose |
| NCC(=O)OCCOCn1cnc2c(=O)[nH]c(N)nc21 [Glycyl ester of ACV] |  |  |  |  | 30 % of dose |
| C[C@H](N)C(=O)OCCOCn1cnc2c(=O)[nH]c(N)nc21 [L -alanyl ester of ACV] |  |  |  |  | 34 % of dose |
